Measured values as given in US7985876B2, “Substituted dibenzoic acid derivatives and use thereof” (Bayer Schering Pharma Aktiengesellschaft, priority 2007, dated 2011).
pIC50: −log10 of the molar value.

Assays:
saphenous artery rings = assay: Vasorelaxant effect in vitro (phenylephrine-contracted artery rings); type: cell-based, Rabbits; conditions: Oryctolagus cuniculus; rabbit saphenous artery rings, contraction induced by phenylephrine
Description: Rabbits are anesthetized and sacrificed by intravenous injection of thiopental sodium (about 50 mg/kg) and exsanguinated. The saphenous artery is removed and divided into rings 3 mm wide. The rings are mounted singly on in each case a pair of triangular hooks open at the end and made of 0.3 mm-thick special wire (Remanium®). Each ring is placed under an initial tension in 5 ml organ baths with Krebs-Henseleit solution which is at 37° C., is gassed with 95% O2/5% CO2 and has the following composition: NaCl 119 mM; KCl 4.8 mM; CaCl2×2H2O 1 mM; MgSO4×7H2O 1.4 mM; KH2PO4 1.2 mM; NaHCO3 25 mM; glucose 10 mM; bovine serum albumin 0.001%. The force of contraction is detected with Statham UC2 cells, amplified and digitized via A/D converters (DAS-1802 HC, Keithley Instruments, Munich) and recorded in parallel on chart recorders. Contractions are induced by addition of phenylephrine.
After several (generally 4) control cycles, the substance to be investigated is added in each further run in increasing dosage, and the height of the contraction achieved under the influence of the test substance is compared with the height of the contraction reached in the last preceding run. The concentration necessary to reduce the contraction reached in the preceding control by 50% is calculated from this (IC50). The standard application volume is 5 μl. […]

[1] = biological target: T1, Heme-free sGC (recombinant soluble guanylate cyclase) (Rattus norvegicus, UniProt P20595); assay: Stimulation of recombinant soluble guanylate cyclase (sGC) in vitro, heme-free enzyme; type: biochemical
T1 construct: made in house
T1 sequence (P20595 1-619): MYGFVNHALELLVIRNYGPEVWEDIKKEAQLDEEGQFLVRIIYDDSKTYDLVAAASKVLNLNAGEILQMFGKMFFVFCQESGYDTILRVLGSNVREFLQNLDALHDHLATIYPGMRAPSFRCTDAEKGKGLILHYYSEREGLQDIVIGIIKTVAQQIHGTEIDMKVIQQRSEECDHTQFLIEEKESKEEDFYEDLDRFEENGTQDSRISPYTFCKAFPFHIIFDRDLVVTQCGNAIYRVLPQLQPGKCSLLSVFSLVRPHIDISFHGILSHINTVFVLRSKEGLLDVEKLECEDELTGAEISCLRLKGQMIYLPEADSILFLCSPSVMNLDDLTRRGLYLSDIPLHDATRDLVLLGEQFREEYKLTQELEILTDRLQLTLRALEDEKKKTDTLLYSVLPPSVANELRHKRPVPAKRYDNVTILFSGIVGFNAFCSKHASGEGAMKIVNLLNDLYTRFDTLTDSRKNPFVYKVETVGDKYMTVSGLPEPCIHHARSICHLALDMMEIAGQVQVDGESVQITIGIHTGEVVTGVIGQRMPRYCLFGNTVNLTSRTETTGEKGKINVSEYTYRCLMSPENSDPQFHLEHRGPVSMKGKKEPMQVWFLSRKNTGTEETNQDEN
T1 sequence (P19686 1-690 partner): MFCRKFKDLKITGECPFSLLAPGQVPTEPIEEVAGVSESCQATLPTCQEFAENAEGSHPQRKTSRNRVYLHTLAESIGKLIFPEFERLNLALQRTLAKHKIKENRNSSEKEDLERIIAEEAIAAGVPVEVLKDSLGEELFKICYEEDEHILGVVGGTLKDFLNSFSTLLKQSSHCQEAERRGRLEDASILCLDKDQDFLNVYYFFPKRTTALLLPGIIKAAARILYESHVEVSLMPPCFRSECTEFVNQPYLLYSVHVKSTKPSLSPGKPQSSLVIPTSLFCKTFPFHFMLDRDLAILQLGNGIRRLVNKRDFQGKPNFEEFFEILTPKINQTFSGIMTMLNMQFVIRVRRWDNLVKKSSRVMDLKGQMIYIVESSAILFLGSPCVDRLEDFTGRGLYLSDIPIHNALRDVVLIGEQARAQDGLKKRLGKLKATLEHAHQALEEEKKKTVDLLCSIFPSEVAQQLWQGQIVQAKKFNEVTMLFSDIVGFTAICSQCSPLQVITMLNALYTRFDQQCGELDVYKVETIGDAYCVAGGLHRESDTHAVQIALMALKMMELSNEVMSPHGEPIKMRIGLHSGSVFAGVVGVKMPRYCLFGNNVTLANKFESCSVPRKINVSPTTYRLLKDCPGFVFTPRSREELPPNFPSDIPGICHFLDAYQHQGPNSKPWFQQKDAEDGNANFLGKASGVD
Description: Investigations on the stimulation of recombinant soluble guanylate cyclase (sGC) by the compounds according to the invention with and without sodium nitroprusside, and with and without the heme-dependent sGC inhibitor 1H-1,2,4-oxadiazole-(4,3a)-quinoxalin-1-one (ODQ) are carried out by the method described in detail in the following reference: M. Hoenicka, E. M. Becker, H. Apeler, T. Sirichoke, H. Schroeder, R. Gerzer and J.-P. Stasch, “Purified soluble guanylyl cyclase expressed in a baculovirus/Sf9 system: Stimulation by YC-1, nitric oxide, and […]”, J. Mol. Med. 77 (1999), 14-23. The heme-free guanylate cyclase is obtained by adding Tween 20 to the sample buffer (0.5% in the final concentration).
(§1) The activation of sGC by a test substance is reported as n-fold stimulation of the basal activity.

[2] = biological target: T2, Heme-containing sGC (recombinant soluble guanylate cyclase) (Rattus norvegicus, UniProt P20595); assay: Stimulation of recombinant soluble guanylate cyclase (sGC) in vitro, heme-containing enzyme; type: biochemical
T2 construct: made in house
T2 sequence (P20595 1-619): T1 sequence (P20595 1-619)
T2 sequence (P19686 1-690 partner): T1 sequence (P19686 1-690 partner)
Text: Hoenicka, E. M. Becker, H. Apeler, T. Sirichoke, H. Schroeder, R. Gerzer and J.-P. Stasch, “Purified soluble guanylyl cyclase expressed in a baculovirus/Sf9 system: Stimulation by YC-1, nitric oxide, and carbon oxide”, J. Mol. Med. 77 (1999), 14-23. The heme-free guanylate cyclase is obtained by adding Tween 20 to the sample buffer (0.5% in the final concentration).
as §1

- pIC50 (saphenous artery rings): 6.60
- Stimulation (n-fold) heme-free sGC, basal ([1]; 0.01 μM Example 1, heme-free by 0.5% Tween 20): 1.0 n-fold
- Stimulation (n-fold) heme-free sGC, basal ([1]; 0.1 μM Example 1, heme-free by 0.5% Tween 20): 2.3 n-fold
- Stimulation (n-fold) heme-free sGC, basal ([1]; 1 μM Example 1, heme-free by 0.5% Tween 20): 9.1 n-fold
- Stimulation (n-fold) heme-free sGC, basal ([1]; 10 μM Example 1, heme-free by 0.5% Tween 20): 16.7 n-fold
- Stimulation (n-fold) heme-containing sGC, +0.1 μM DEA/NO ([2]; 0.01 μM Example 1): 24.1 n-fold
- Stimulation (n-fold) heme-containing sGC, +10 μM ODQ ([2]; 0.01 μM Example 1): 7.0 n-fold
- Stimulation (n-fold) heme-containing sGC, basal ([2]; 0.01 μM Example 1): 1.3 n-fold
- Stimulation (n-fold) heme-containing sGC, +0.1 μM DEA/NO ([2]; 0.1 μM Example 1): 25.5 n-fold
- Stimulation (n-fold) heme-containing sGC, +10 μM ODQ ([2]; 0.1 μM Example 1): 16.2 n-fold
- Stimulation (n-fold) heme-containing sGC, basal ([2]; 0.1 μM Example 1): 1.9 n-fold
- Stimulation (n-fold) heme-containing sGC, +0.1 μM DEA/NO ([2]; 1 μM Example 1): 33.4 n-fold
- Stimulation (n-fold) heme-containing sGC, +10 μM ODQ ([2]; 1 μM Example 1): 60.6 n-fold
- Stimulation (n-fold) heme-containing sGC, basal ([2]; 1 μM Example 1): 6.4 n-fold
- Stimulation (n-fold) heme-containing sGC, +0.1 μM DEA/NO ([2]; 10 μM Example 1): 41.5 n-fold
- Stimulation (n-fold) heme-containing sGC, +10 μM ODQ ([2]; 10 μM Example 1): 92.2 n-fold
- Stimulation (n-fold) heme-containing sGC, basal ([2]; 10 μM Example 1): 11.0 n-fold
- Synergy with the NO donor DEA/NO on sGC stimulation ([2]; combination of Example 1 and DEA/NO): no synergistic effect
Structure (SMILES): O=C(O)c1ccc(CCC(/C=C/c2cc(F)ccc2OCc2ccc(C(F)(F)F)cc2)CCc2ccc(C(=O)O)cc2)cc1 [Example 1, 4-[(4E)-3-[2-(4-Carboxyphenyl)ethyl]-5-(5-fluoro-2-{[4-(trifluoromethyl)benzyl]oxy}phenyl)pent-4-en-1-yl]benzoic acid]
